Marks after values point to notes of the source that are not given here.
Legend:
plasma hemostasis [1] = experiment: Thrombin time after intravenous administration; type: in vivo, rabbit
Protocol: The investigations were performed on 72 rabbits of the “Chinchilla” breed with a mass of 2.5±0.3 kg, who were administered which solutions of compounds 2, 15, 21, 37 in doses of 15, 30 and 60 mg/kg intravenously. The experiments included the thrombin-test (series No. 7300) and the coagulability-test (series No. 5000) purchased from the scientific-and-production association (SPA) “Renam”, thromboplastin (series No. 240600) and calcium chloride purchased from the SPA “MedioLab”
(§1) The static parameters of the blood and plasma coagulation (partial activated thromboplastin time, thrombin time, maximum coagulation activity (test for auto coagulation) were determined using the Behnk Electronic coagulometer (Germany). The operating principle of this instrument is based on the fact that the formed blood clot breaks the contacts of the pulse counter in the flask-pin circuit, said pin permanently oscillating in a vertical plane. The moment of formation of the clot is registered by stopping the stop watch hand.
(§2) The measurements were effected at a constant temperature of 37° C. maintained by a temperature control unit.
The “thrombin time” characterizes the rate of transformation of fibrinogen into fibrin. It was determined by measuring the coagulation time of plasma deprived of thrombocytes under the effect of thrombin standardized by the control plasma.
0.2 ml of a thrombin solution was added to 0.2 ml of the test blood plasma of experimental animals, from whom the blood was taken 15, 30, 60 and 120 minutes after the intravenous administration of compounds 2, 15, 21, 37 according to the invention in doses of 15, 30, 60 mg/kg incubated for 1 minute at a temperature of 37° C. and the time of formation of clot T2 in seconds in a coagulometer of the Behnk Electronic Company (Germany).

plasma hemostasis [2] = experiment: Partial activated thromboplastin time (PATT) after intravenous administration; type: in vivo, rabbit
Protocol: as §1, §2

[3] = Chronic toxicity of suppositories: biochemical indexes of blood serum; type: in vivo, rats; conditions: male rats, suppositories, 1 month; for Cholesterol in blood serum: control 3.02 ± 0.08; for Urea in blood serum: control 8.44 ± 0.60; for Glucose in blood serum: control 9.76 ± 0.15; for ALT in blood serum: control 11.33 ± 1.96; for AST in blood serum: control 19.13 ± 1.02; for Bilirubin in blood serum: control 35.93 ± 2.19; for Creatinine in blood serum: control 40.23 ± 2.84; for Alkalinous phosphatase in blood serum: control 40.74 ± 1.57; for Total protein in blood serum: control 94.89 ± 6.67;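 as to all read-outs here: inbred rats dosed rectally with softened suppositories, controls given matching volumes of sterile medical liquid paraffin, serum sampled one month into a two-month dosing course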
Protocol: The experiments were conducted on inbred rats.
Two doses of preparations used in the experiments: 50 mg/kg and 500 mg/kg. Before the administration, the suppositories were softened by heating in a glass water bath at a temperature of 38-39° C., the soft mass was collected in tuberculin syringe in a volume of 1 ml, a needle with oliva was attached to the syringe, and the preparatory mass was introduced into the rectum of the animal for a depth of 1.5-2.0 cm. The animals of the control group were administered with sterile medical liquid paraffin in a volume corresponding to the volume of the investigated suppository. A complete course of administration of drugs to the animals was two months. A complex of laboratory diagnostic investigations was carried out one month after the beginning of the administration of the preparation to the animal—in a middle of the course (8 animals), two months after ending the course (8 animals) and three months after ending the recovery period of one month (8 animals). The mass of the body of the rats in the first month of administration of the preparation was determined weekly, and then once in two weeks. On the basis of the dynamics of an index of the mass of the animal body, the volume of preparation being administered was corrected taking into account the test dose.

thrombocytes = experiment: ADP-induced aggregation of thrombocytes in vitro (Born method, plasma enriched with thrombocytes); type: cell-based, rabbit; conditions: 3-minute incubation, ADP 10^−5 M
Protocol: The aggregation of thrombocytes was studied by the Born method based on determination of the changes in the optical density of plasma enriched with thrombocytes after its incubation with an aggregation inductor.
Adenozinediphosphoric acid (ADP) was selected as an aggregation inductor, which in fact is an aggregation generator. Use was made of a sample (registration number 885) of the Sigma Diagnostics Company (USA) in final concentration of 10^−5 M.
The experiments were carried out on male rabbits of the “Chinchilla” breed having a mass of 2.7±0.3 kg. 18-24 hours prior to the experiment they were deprived of feed while preserving free access to water.
To obtain plasma enriched with thrombocytes, blood was taken from a cut of a marginal vein of the rabbit ear, the sample was stabilized with 3.8% of sodium citrate solution in a ratio of 9:1 and centrifuged at 200 g (1000 rev/min) for 10 minutes. The top supernatant layer enriched with thrombocytes was transferred by an automatic dropper into a silicone test tube and kept at 37° C. The plasma enriched with thrombocytes contained, on the average, […]. If this content exceeded the specified 3×10^8 blood platelets in 1 liter, this sample was diluted to the necessary concentration with plasma deprived of thrombocytes, which was obtained by centrifuging blood at 650 g during 10 minutes.
The measurements of the optical density of the samples were made on two-channel aggregometer of the “Chronolog” Company (USA). A flask containing 490 mkl of plasma rich with thrombocytes was placed in a device, into which a magnetic agitator covered with Teflon was lowered. The index of maximum amplitude of aggregation (MA) in percent of a fall of the plasma optical density under effect of the aggregation inductor was recorded. The control index MA of plasma was compared with the MA of plasma incubated for 3 minutes with different concentrations of the compounds: from 10^−3 to 10^−7 in vitro experiments or with plasma obtained 15, 30, 60 and 120 minutes after intravenous administration of different doses of the compounds in vivo experiments.
The process of aggregation of thrombocytes was recorded with the help of a computer; on the monitor screen the there were depicted curves reflecting changes of the optical density of the plasma enriched which was taken as a standard 100% compared to the optical density of the non-thrombocyte plasma taken for 0% content of thrombocytes.
Under in vitro conditions a flask was filled with blood plasma enriched with thrombocytes, to which an aggregation inductor ADP was added at a concentration of 10^−5 M, incubated for 3 minutes, and then the compounds according to the invention were introduced directly into the flask. Their action by aggregation of thrombocytes was studied after 3-minute incubation in a wide range of concentrations from 10^−3 to 10^−7 M to minimum concentration of 10^−7M not inducing no effect of suppressing the aggregation.

Nc1cccc2c(=O)[nH][nH]c(=O)c12.[Na] [Compound 15, sodium salt of 5-amino-benzo[d]-3H-pyridazine-1,4-dione]
thrombin time, T2 (plasma hemostasis [1]; 15.0 mg/kg intravenously, after 15 minutes, control 15.8): 17.0* s | thrombin time, T2 (plasma hemostasis [1]; 15.0 mg/kg intravenously, after 30 minutes, control 15.8): 18.5* s | thrombin time, T2 (plasma hemostasis [1]; 15.0 mg/kg intravenously, after 60 minutes, control 15.8): 16.5* s | thrombin time, T2 (plasma hemostasis [1]; 15.0 mg/kg intravenously, after 120 minutes, control 15.8): 15.5* s | thrombin time, T2 (plasma hemostasis [1]; 30.0 mg/kg intravenously, after 15 minutes, control 14.7): 19.7* s | thrombin time, T2 (plasma hemostasis [1]; 30.0 mg/kg intravenously, after 30 minutes, control 14.7): 20.5* s | thrombin time, T2 (plasma hemostasis [1]; 30.0 mg/kg intravenously, after 60 minutes, control 14.7): 21.3* s | thrombin time, T2 (plasma hemostasis [1]; 30.0 mg/kg intravenously, after 120 minutes, control 14.7): 15.0* s | thrombin time, T2 (plasma hemostasis [1]; 60.0 mg/kg intravenously, after 15 minutes, control 15.2): 16.8* s | thrombin time, T2 (plasma hemostasis [1]; 60.0 mg/kg intravenously, after 30 minutes, control 15.2): 18.0* s | thrombin time, T2 (plasma hemostasis [1]; 60.0 mg/kg intravenously, after 60 minutes, control 15.2): 16.5* s | thrombin time, T2 (plasma hemostasis [1]; 60.0 mg/kg intravenously, after 120 minutes, control 15.2): 14.7* s | PATT, T (plasma hemostasis [2]; 15.0 mg/kg intravenously, after 15 minutes, control 37.0 ± 0.2): 37.0 ± 0.1 s | PATT, T (plasma hemostasis [2]; 15.0 mg/kg intravenously, after 30 minutes, control 37.0 ± 0.2): 37.0 ± 0.2 s | PATT, T (plasma hemostasis [2]; 15.0 mg/kg intravenously, after 60 minutes, control 37.0 ± 0.2): 36.9 ± 0.1 s | PATT, T (plasma hemostasis [2]; 15.0 mg/kg intravenously, after 120 minutes, control 37.0 ± 0.2): 37.0 ± 0.3 s | PATT, T (plasma hemostasis [2]; 30.0 mg/kg intravenously, after 15 minutes, control 33.3 ± 0.8): 32.9 ± 0.8 s | PATT, T (plasma hemostasis [2]; 30.0 mg/kg intravenously, after 30 minutes, control 33.3 ± 0.8): 32.1 ± 0.1 s | PATT, T (plasma hemostasis [2]; 30.0 mg/kg intravenously, after 60 minutes, control 33.3 ± 0.8): 32.0 ± 0.2 s | PATT, T (plasma hemostasis [2]; 30.0 mg/kg intravenously, after 120 minutes, control 33.3 ± 0.8): 32.0 ± 0.1 s | PATT, T (plasma hemostasis [2]; 60.0 mg/kg intravenously, after 15 minutes, control 32.5 ± 0.3): 32.2 ± 0.1 s | PATT, T (plasma hemostasis [2]; 60.0 mg/kg intravenously, after 30 minutes, control 32.5 ± 0.3): 32.2 ± 0.1 s | PATT, T (plasma hemostasis [2]; 60.0 mg/kg intravenously, after 60 minutes, control 32.5 ± 0.3): 32.1 ± 0.2 s | PATT, T (plasma hemostasis [2]; 60.0 mg/kg intravenously, after 120 minutes, control 32.5 ± 0.3): 32.2 ± 0.1 s | effect on the PATT (plasma hemostasis [2]; doses 15.0, 30.0, 60.0 mg/kg): do not affect the PATT | Cholesterol in blood serum ([3]; 50 mg/kg): 2.01 ± 0.50 mmol/L | Urea in blood serum ([3]; 50 mg/kg): 10.33 ± 0.51 Mkmol/l | Glucose in blood serum ([3]; 50 mg/kg): 10 ± 0.41 mM | ALT in blood serum ([3]; 50 mg/kg): 7.63 ± 1.95 unit/l | AST in blood serum ([3]; 50 mg/kg): 19.49 ± 2.90 unit/1 | Bilirubin in blood serum ([3]; 50 mg/kg): 43.07 ± 3.57 mmol/L | Creatinine in blood serum ([3]; 50 mg/kg): 45.59 ± 2.68 mkmol/l | Alkalinous phosphatase in blood serum ([3]; 50 mg/kg): 40.74 ± 6.78 unit/l | Total protein in blood serum ([3]; 50 mg/kg): 90.22 ± 6.78 g/L | Cholesterol in blood serum ([3]; 500 mg/kg): 2.30 ± 0.57 mmol/L | Urea in blood serum ([3]; 500 mg/kg): 10.89 ± 0.73 Mkmol/l | Glucose in blood serum ([3]; 500 mg/kg): 10.7 ± 0.41 mM | ALT in blood serum ([3]; 500 mg/kg): 9.48 ± 1.85 unit/l | AST in blood serum ([3]; 500 mg/kg): 15.14 ± 1.58 unit/1 | Bilirubin in blood serum ([3]; 500 mg/kg): 40.69 ± 15.75 mmol/L | Creatinine in blood serum ([3]; 500 mg/kg): 48.27 ± 12.29 mkmol/l | Alkalinous phosphatase in blood serum ([3]; 500 mg/kg): 41.60 ± 2.26 unit/l | Total protein in blood serum ([3]; 500 mg/kg): 71.56 ± 8.23 g/L | MA - fall of optical density of plasma, % to the standard (thrombocytes; 10^−3 M, control 60.8 ± 3.4): 44.8 ± 2.8 % | MA - fall of optical density of plasma, % to the standard (thrombocytes; 10^−4 M, control 60.0 ± 2.1): 46.3 ± 1.7 % | MA - fall of optical density of plasma, % to the standard (thrombocytes; 10^−5 M, control 52.5 ± 2.1): 39.8 ± 3.1 % | MA - drop of optical density, % (thrombocytes; 10^−6 M, control 52.8 ± 1.8): 47.3 ± 1.8 % | MA - drop of optical density, % (thrombocytes; 10^−7 M, control 51.5 ± 2.1): 49.3 ± 1.4%

From patent US8592421B2, “Cyclic bioisosters of purine system derivatives and a pharmaceutical composition based thereon” (priority 2003, dated 2013)
